In publication PMC11992225, “Antibacterial compounds against non-growing and intracellular bacteria” (npj Antimicrobials and Resistance, 2025):
Where two headings read alike, the source gives them in different places.

Tests used:
non-growing UPEC CFT073 = experiment: Dilution-regrowth assay (screen, hit validation, dose-response) on stationary-phase UPEC; assay type: cell-based, Escherichia coli; details: for Regrowth, OD600 at 6h or 8h after dilution into drug-free medium: average; for EC50: Escherichia coli, E. coli, regrowth delay of non-growing bacteria, 24 h treatment, OD600 6 h after 2500-fold dilution, read-out: EC50
How it was run: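 Regrowth (OD600 after 6 h, 37 °C) of diluted non-growing CFT073, following 24 h compound treatment of 24 h stationary cultures, defines activity relative to untreated control. Screen at 20 µM, validation at 20, 10, 5 µM (duplicates), dose–response in three biological replicates fitted by five-parameter logistic.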

[1] = test system: intracellular S. flexneri 5a M90T in TC7 cells; experiment: microbe, parasite or virus in culture; assay type: cell-based, Shigella flexneri; details: for IC50: Shigella flexneri, TC7, 14 h; for MIC:IC50 ratio: S. flexneri MIC in TSB versus intracellular IC50
Description: Nonproliferating bacterial pathogens frequently inhabit intracellular environments, but establishing relevant infection models for high-throughput testing is challenging. Therefore, we firstly tested ability of the hit compounds to cross the eukaryotic cytoplasmic membrane barrier and inhibit growth of S. flexneri within the cytoplasm of the TC7 human colon adenocarcinoma cell line[59]. To this end, we developed a new, fluorescence-based method that enables real-time monitoring of growth of intracellular Shigella. We used S. flexneri 5a M90T strain producing the AfaE adhesin that enhances bacterial adhesion to epithelial cells and allows synchronization of invasion. The strain was further modified to constitutively express super-folder GFP (sfGFP), which enables monitoring bacterial growth by fluorescence measurement. The epithelial cells were grown to confluence and infected with bacteria at an MOI (multiplicity of infection) of 50. […] Following bacterial adhesion and invasion, the cells were incubated with varying concentrations of the hit compounds and intracellular bacterial growth was tracked by measuring green fluorescence.
The cells were split using trypsin, seeded in 96-well plates for infection, and grown to confluence, corresponding to approximately 40,000 cells per well.
A single colony of S. flexneri was inoculated into TSB supplemented with 50 μg/ml spectinomycin and incubated overnight at 37°C with agitation. The overnight culture was diluted 1:200 in fresh TSB, and the bacteria were grown at 37 °C until the OD600 reached 0.3–0.4, corresponding to approximately 2 × 10^7 CFU/ml. Bacteria were pelleted by centrifugation, washed twice with sterile PBS, and resuspended in infection solution (serum-free DMEM supplemented with 20 mM HEPES, pH 7.4). Just prior to infection, the medium was withdrawn, and the cells were washed twice with sterile PBS. The bacterial inoculum (MOI 50, 2 × 10^7 CFU/ml) was added to all wells except the no-infection control. The plates were incubated at room temperature for 15 min to allow bacterial adhesion, followed by a 1 h incubation at 37 °C with 5% CO2 to facilitate bacterial invasion.
Twofold serial dilutions of the drugs were prepared in infection solution containing 50 μg/ml gentamicin in a 96-well plate. After the invasion period, the bacterial inoculum was removed, and the serial dilutions of the drugs were added to the wells, except for the no-drug control. […] […] The experiments were performed in triplicates on separate days.
Statistical significance of the drug effects was assessed using a one-way ANOVA followed by Dunnett’s test, comparing each treatment to the drug-free control. Statistical significance of the differences in chemical characteristics between the hit compounds and the Prestwick library was assessed using a Mann–Whitney test. Statistical significance was set at P ≤ 0.05. A five-parameter logistic equation was used for asymmetric sigmoidal curve fitting and for EC50 and IC50 determination. The Venn diagram in Fig. 1F was prepared using BioVenn web application. Characteristics of the chemical and physical properties of Prestwick library compounds were obtained from Supplementary Table S1 from reference. Characteristics of the hit compounds not included in the Prestwick library were retrieved from the PubChem database.

[2] = E. coli in 1:4 CA-MHB (pH 7.4), concentration 1
[3] = E. coli in 1:4 CA-MHB (pH 7.4), concentration 2.5
[4] = E. coli in 1:4 CA-MHB (pH 7.4), concentration 5
[5] = E. coli in 1:4 CA-MHB (pH 7.4), concentration 10
[6] = E. coli in 1:4 CA-MHB (pH 7.4), concentration 30
[7] = E. coli in LPM (pH 5.5), concentration 1
[8] = E. coli in LPM (pH 5.5), concentration 2.5
[9] = E. coli in LPM (pH 5.5), concentration 5
[10] = E. coli in LPM (pH 5.5), concentration 10
[11] = E. coli in LPM (pH 5.5), concentration 30
[12] = TC7 cells infected with GFP-expressing S. flexneri, 14 h treatment

| SMILES | EC50 (non-growing UPEC CFT073; pH 7.4, 1:4 CA-MHB) [nM] | IC50 [1] [nM] | Fluorescence intensity (RFU), Mean, 2 x MIC [1, 12] [RFU] | Fluorescence intensity (RFU), Mean, 4 x MIC [1, 12] [RFU] | Fluorescence intensity (RFU), Mean, 8 x MIC [1, 12] [RFU] | Fluorescence intensity (RFU), Mean, 16 x MIC [1, 12] [RFU] | Fluorescence intensity (RFU), Mean, 32 x MIC [1, 12] [RFU] | Fluorescence intensity (RFU), Mean, MIC [1, 12] [RFU] | Fluorescence intensity (RFU), Mean, 0.25 x MIC [1, 12] [RFU] | Fluorescence intensity (RFU), Mean, 0.5 x MIC [1, 12] [RFU] | other results |
| --- | --- | --- | --- | --- | --- | --- | --- | --- | --- | --- | --- |
| CO/N=C1\CN(c2nc3c(cc2F)c(=O)c(C(=O)O)cn3C2CC2)CC1CN (centres unmarked) [Gemifloxacin] | 752 | 22 | 4953.61 | 3661.36 | 3159.39 | 3090.56 | 2706.11 | 6688.44 | – | – | Regrowth, OD600 at 6h or 8h after dilution into drug-free medium (non-growing UPEC CFT073; E. coli in 1:4 CA-MHB (pH 7.4), concentration 0.25): 0.556; Regrowth, OD600 at 6h or 8h after dilution into drug-free medium (non-growing UPEC CFT073; E. coli in 1:4 CA-MHB (pH 7.4), concentration 0.5): 0.511; Regrowth, OD600 at 6h or 8h after dilution into drug-free medium (non-growing UPEC CFT073; [2]): 0.206; Regrowth, OD600 at 6h or 8h after dilution into drug-free medium (non-growing UPEC CFT073; [3]): 0.090; Regrowth, OD600 at 6h or 8h after dilution into drug-free medium (non-growing UPEC CFT073; [4]): 0.086; Regrowth, OD600 at 6h or 8h after dilution into drug-free medium (non-growing UPEC CFT073; [5]): 0.083; Regrowth, OD600 at 6h or 8h after dilution into drug-free medium (non-growing UPEC CFT073; [6]): 0.082; Regrowth, OD600 at 6h or 8h after dilution into drug-free medium (non-growing UPEC CFT073; E. coli in LPM (pH 5.5), concentration 0.25): 0.559; Regrowth, OD600 at 6h or 8h after dilution into drug-free medium (non-growing UPEC CFT073; E. coli in LPM (pH 5.5), concentration 0.5): 0.564; Regrowth, OD600 at 6h or 8h after dilution into drug-free medium (non-growing UPEC CFT073; [7]): 0.562; Regrowth, OD600 at 6h or 8h after dilution into drug-free medium (non-growing UPEC CFT073; [8]): 0.529; Regrowth, OD600 at 6h or 8h after dilution into drug-free medium (non-growing UPEC CFT073; [9]): 0.513; Regrowth, OD600 at 6h or 8h after dilution into drug-free medium (non-growing UPEC CFT073; [10]): 0.417; Regrowth, OD600 at 6h or 8h after dilution into drug-free medium (non-growing UPEC CFT073; [11]): 0.143 |
| C[C@H]1NCc2cc(-c3ccc4c(=O)c(C(=O)O)cn(C5CC5)c4c3OC(F)F)ccc21 [Garenoxacin] | 2190 | 31 | 3944.5 | 3336.42 | 2806.31 | 2331.56 | 1840.28 | 3888.86 | 6643.04 | 5273 | – |
| Cc1oc(=O)oc1CN1CCN(c2cc3c(cc2F)c(=O)c(C(=O)O)c2n3C(C)S2)CC1 (centres unmarked) [Prulifloxacin] | 571 | 147 | 8759.64 | 6976.67 | 4116.28 | 3279.44 | 2886.92 | 8494.31 | – | – | Regrowth, OD600 at 6h or 8h after dilution into drug-free medium (non-growing UPEC CFT073; [2]): 0.198; Regrowth, OD600 at 6h or 8h after dilution into drug-free medium (non-growing UPEC CFT073; [3]): 0.109; Regrowth, OD600 at 6h or 8h after dilution into drug-free medium (non-growing UPEC CFT073; [4]): 0.093; Regrowth, OD600 at 6h or 8h after dilution into drug-free medium (non-growing UPEC CFT073; [5]): 0.094; Regrowth, OD600 at 6h or 8h after dilution into drug-free medium (non-growing UPEC CFT073; [6]): 0.092; Regrowth, OD600 at 6h or 8h after dilution into drug-free medium (non-growing UPEC CFT073; [7]): 0.586; Regrowth, OD600 at 6h or 8h after dilution into drug-free medium (non-growing UPEC CFT073; [8]): 0.570; Regrowth, OD600 at 6h or 8h after dilution into drug-free medium (non-growing UPEC CFT073; [9]): 0.549; Regrowth, OD600 at 6h or 8h after dilution into drug-free medium (non-growing UPEC CFT073; [10]): 0.564; Regrowth, OD600 at 6h or 8h after dilution into drug-free medium (non-growing UPEC CFT073; [11]): 0.416; MIC:IC50 ratio [1]: below 0.5 |
| CC[C@H]1OC(=O)[C@@](C)(F)C(=O)[C@H](C)[C@@H](O[C@@H]2O[C@H](C)C[C@H](N(C)C)[C@H]2O)[C@](C)(OC)C[C@@H](C)C(=O)[C@H](C)[C@H]2N(CCCCn3cc(-c4cccc(N)c4)nn3)C(=O)O[C@]12C [Solithromycin] | 288 | 1680 | 1563.03 | 1560.69 | 1548.25 | 1546 | 1533.19 | 1837.61 | 4637.62 | 2156.75 | MIC:IC50 ratio [1]: > 2; Fluorescence intensity (RFU), Mean, 0.0625 x MIC ([1]; TC7 cells infected with GFP-expressing S. flexneri, 14 h treatment, 0.0625 x MIC): 9882.71 RFU; Fluorescence intensity (RFU), Mean, 0.125 x MIC [1, 12]: 9214.08 RFU |
| CC1Sc2c(C(=O)O)c(=O)c3cc(F)c(N4CCNCC4)cc3n21 (centres unmarked) [Ulifloxacin] | 460 | 101 | 6924.86 | 4362.58 | 3208.03 | 2720.44 | 2065.19 | 8271.31 | – | – | EC50 (non-growing UPEC CFT073; LPM pH 5.5): 8780 nM |
| CN1C[C@@H]2C[C@H]1CN2c1cc2c(cc1F)c(=O)c(C(=O)O)cn2C1CC1 [Danofloxacin] | 2160 | 52 | 3750.58 | 3092.69 | 2319.78 | 1798.5 | 1629.06 | 4339.36 | 9638.21 | 8906.42 | – |
| N[C@@H]1[C@H]2CN(c3nc4c(cc3F)c(=O)c(C(=O)O)cn4-c3ccc(F)cc3F)C[C@@H]12 [Trovafloxacin] | 1250 | 37 | 2933.5 | 2559.17 | 2016.56 | 1696.44 | 1579.94 | 3277.92 | 8024.79 | 6129.12 | EC50 (non-growing UPEC CFT073; LPM pH 5.5): 5180 nM; Fluorescence intensity (RFU), Mean, 0.125 x MIC [1, 12]: 8837.54 RFU |
